The source of these data is publication PMC9715518, “Human and rat microsomal metabolites of N-tert-butoxycarbonylmethamphetamine and its urinary metabolites in rat” (Forensic Toxicology, 2021).

Some results are limits rather than exact numbers.

A short description of series [1]: Rat administration test, urinary excretion. As to conditions: for M1–D1 absolute amount in urine after hydrolysis / M1–D1 concentration in urine after hydrolysis / M1–D1 concentration in urine before hydrolysis / M1–D2 absolute amount in urine after hydrolysis / M1–D2 concentration in urine after hydrolysis / M1–D2 concentration in urine before hydrolysis / Detection in rat urine (LC–QToF–MS): BocMA 20 mg/kg i.p.; for Detection in rat urine (LC–QToF–MS): urine 0–72 h, n = 3.

The nature of series [2]: Microsomal metabolism test, rat liver microsomes. The following applies: for Detection after incubation of BocMA (LC–QToF–MS): RLM incubation of BocMA; for Share of the degraded products detected as this metabolite: RLM, first 3 min; for Incubation time at which peak intensity was highest: RLM test.
Series [3] can be described thus: Microsomal metabolism test, human liver microsomes. The following applies: for Detection after incubation of BocMA (LC–QToF–MS): HLM incubation of BocMA; for Share of the degraded products detected as this metabolite: HLM, first 8 min. (Liver microsomes are a subcellular fraction often used to study metabolism.)
For series [4] the following is noted: within 3–4 days; cited from earlier work.

In the case of `CC(C(O)c1ccccc1)N(C)C(=O)OC(C)(C)C` (single isomer, unassigned) [M1–D1, N-tert-butoxycarbonylephedrine], the “M1–D1 absolute amount in urine after hydrolysis” value (from here on “M1–D1 absolute amount in urine”) in series [1] (rat no. 1, urine 0–4 h) stood at 0.69 ng; in series [1] (rat no. 1, urine 0–72 h total) it was 57 ng; in series [1] (rat no. 1, urine 4–8 h), 54 ng; in series [1] (rat no. 2, urine 0–4 h), 10 ng; in series [1] (rat no. 2, urine 0–72 h total) it was 260 ng; in series [1] (rat no. 2, urine 4–8 h), 180 ng. For the same molecule, the “M1–D1 absolute amount in urine” value in series [1] (rat no. 2, urine 8–24 h) was found to be 72 ng; in series [1] (rat no. 3, urine 0–4 h), 70 ng; in series [1] (rat no. 3, urine 0–72 h total) it was 1500 ng; in series [1] (rat no. 3, urine 4–8 h), 440 ng; in series [1] (rat no. 3, urine 8–24 h), 860 ng; in series [1] (rat no. 3, urine 24–48 h) it was 88 ng. Besides, in series [1] (rat no. 3, urine 48–72 h), the “M1–D1 absolute amount in urine” value was 6.4 ng. The “M1–D1 concentration in urine after hydrolysis” value in series [1] (rat no. 1, urine 0–4 h) came out at 0.46 ng/mL; in series [1] (rat no. 1, urine 4–8 h), 54 ng/mL; in series [1] (rat no. 2, urine 0–4 h), 5.2 ng/mL; in series [1] (rat no. 2, urine 4–8 h), 89 ng/mL; in series [1] (rat no. 2, urine 8–24 h) it was 4.8 ng/mL; in series [1] (rat no. 3, urine 0–4 h), 140 ng/mL. The “M1–D1 concentration in urine after hydrolysis” value in series [1] (rat no. 3, urine 4–8 h) came to 220 ng/mL; in series [1] (rat no. 3, urine 8–24 h), 86 ng/mL; in series [1] (rat no. 3, urine 24–48 h), 11 ng/mL; in series [1] (rat no. 3, urine 48–72 h) it was 0.71 ng/mL. The “M1–D1 concentration in urine before hydrolysis” value is listed as 0.47 ng/mL in series [1] (rat no. 1, urine 0–4 h); 0.51 ng/mL in series [1] (rat no. 1, urine 4–8 h); 6.5 ng/mL in series [1] (rat no. 2, urine 0–4 h); 3.0 ng/mL in series [1] (rat no. 2, urine 4–8 h); 3.0 ng/mL in series [1] (rat no. 2, urine 8–24 h); 50 ng/mL in series [1] (rat no. 3, urine 0–4 h). In series [1] (rat no. 3, urine 4–8 h), the “M1–D1 concentration in urine before hydrolysis” value is on record as 3.2 ng/mL. The “Detection after incubation of BocMA (LC–QToF–MS)” value (“Detection after incubation” for short) in series [2] was “detected”; in series [3], “produced”. The “Share of the degraded products detected as this metabolite” value (“Share of the degraded products detected” below) in series [2] turned out to be 5%; in series [3], 10%.

Regarding `CC(C(O)c1ccccc1)N(C)C(=O)OC(C)(C)C` (single isomer, unassigned) [M1–D2, N-tert-butoxycarbonylpseudoephedrine], the “M1–D2 absolute amount in urine after hydrolysis” value in series [1] (average of 3 rats, urine 0–72 h total) is 85 ng; in series [1] (rat no. 1, urine 0–4 h), 7.8 ng; in series [1] (rat no. 1, urine 0–72 h total) it was 43 ng; in series [1] (rat no. 1, urine 4–8 h), 35 ng; in series [1] (rat no. 2, urine 0–4 h) it was 24 ng; in series [1] (rat no. 2, urine 0–72 h total), 52 ng. Also, the “M1–D2 absolute amount in urine after hydrolysis” value in series [1] (rat no. 2, urine 4–8 h) is 28 ng; in series [1] (rat no. 3, urine 0–4 h), 50 ng; in series [1] (rat no. 3, urine 0–72 h total), 160 ng; in series [1] (rat no. 3, urine 4–8 h) it was 66 ng; in series [1] (rat no. 3, urine 8–24 h), 42 ng. Besides, the “M1–D2 concentration in urine after hydrolysis” value in series [1] (rat no. 1, urine 0–4 h) amounted to 5.2 ng/mL; in series [1] (rat no. 1, urine 4–8 h), 35 ng/mL; in series [1] (rat no. 2, urine 0–4 h), 12 ng/mL; in series [1] (rat no. 2, urine 4–8 h), 14 ng/mL; in series [1] (rat no. 3, urine 0–4 h), 100 ng/mL; in series [1] (rat no. 3, urine 4–8 h), 33 ng/mL. Also, the “M1–D2 concentration in urine after hydrolysis” value in series [1] (rat no. 3, urine 8–24 h) is reported as 4.2 ng/mL. Besides, the “M1–D2 concentration in urine before hydrolysis” value in series [1] (rat no. 1, urine 0–4 h) was 1.5 ng/mL; in series [1] (rat no. 1, urine 4–8 h), 0.67 ng/mL; in series [1] (rat no. 2, urine 0–4 h), 12 ng/mL; in series [1] (rat no. 2, urine 4–8 h) it was 1.0 ng/mL; in series [1] (rat no. 3, urine 0–4 h), 8.1 ng/mL; in series [1] (rat no. 3, urine 4–8 h), 1.5 ng/mL. Moreover, the “Detection after incubation” value is given as “detected” in series [2] and “produced” in series [3]. For the same molecule, the “Share of the degraded products detected” value was found to be 40% in series [2] and 4% in series [3].

Take `CC(N)Cc1ccc(O)cc1` (centres unmarked) [4OHAP, 4-hydroxy amphetamine, reference compound]: in series [1], the “Detection in rat urine (LC–QToF–MS)” value is on record as “not detected”. In addition, the “Detection after incubation” value in series [2] and in series [3] was “not detected” throughout.

Regarding `CNC(C)Cc1ccc(O)cc1` (centres unmarked) [4OHMA, 4-hydroxy methamphetamine, reference compound], the “Detection in rat urine (LC–QToF–MS)” value in series [1] is reported as “not detected”. Also, the “Detection after incubation” value in series [2] and in series [3] was “not detected” each time.

As for `CC(N)Cc1ccccc1` (centres unmarked) [AP, amphetamine], the “Detection in rat urine (LC–QToF–MS)” value in series [1] was “not detected”. Further, the “Detection after incubation” value in series [2] is recorded as “not detected”.

For the molecule `CC(NC(=O)OC(C)(C)C)C(O)c1ccccc1` (centres unmarked) [Boc-protected nor-ephedrine], the “Detection after incubation” value in series [2] and in series [3] was “not detected” each time.

`CC(C(=O)c1ccccc1)N(C)C(=O)OC(C)(C)C` (centres unmarked) [BocMC, N-tert-butoxycarbonyl-2-(methylamino)-1-phenylpropan-1-one, reference compound]: the “Detection after incubation” value in series [2] and in series [3] was “not detected” throughout.

Consider `CC(C(O)c1ccccc1)N(C)C(=O)OC(C)(C)C` (centres unmarked) [M1], for which the “M1 diastereomer ratio (R = M1–D1/M1–D2)” value in series [1] (in vivo, rat urine) was not below 1. Moreover, in series [1], the “Detection in rat urine (LC–QToF–MS)” value is given as “detected in urine from all rats”. In addition, the “Incubation time at which peak intensity was highest” value (“Incubation time” for short) in series [2] was 3 min. In addition, the “Share of the degraded products detected” value in series [2] is on record as 45%; in series [2] (listed as M1 (D1, 2)) it was approximately 45%; in series [3] it was 14%.

As for `CC(Cc1ccccc1)NC(=O)OC(C)(C)C` (centres unmarked) [M2, N-tert-butoxycarbonylamphetamine], in series [1], the “Detection in rat urine (LC–QToF–MS)” value is on record as “not detected”. Moreover, the “Detection after incubation” value in series [3] is given as “produced”.

Turning to `C[C@@H](Cc1ccc(O)cc1)N(C)C(=O)OC(C)(C)C` [M3, N-tert-butoxycarbonyl-4-hydroxymethamphetamine], the “Detection in rat urine (LC–QToF–MS)” value in series [1] is on record as “trace amount of M3 was detected only in the urine collected during 0–4 h from Rat No. 3”. In addition, the “Detection after incubation” value in series [3] is on record as “produced”.

Consider `CC(NC(=O)OC(C)(C)C)C(=O)c1ccccc1` (centres unmarked) [M4, N-tert-butoxycarbonyl-2-amino-1-phenylpropan-1-one], for which, in series [1], the “Detection in rat urine (LC–QToF–MS)” value is reported as “not detected”. In series [2], the “Detection after incubation” value is listed as “detected” and the “Incubation time” value came to 20 min. Besides, the “Detection after incubation” value in series [3] is listed as “produced”.

Turning to `C[C@H](NC(=O)OC(C)(C)CO)C(=O)c1ccccc1` [M5], in series [1] (rat urine), the “Urine collection interval with the highest ion peak intensity” value was in the range of 4 to 8 h. Besides, in series [1] (rat urine, β-glucuronidase hydrolysis), the “Increase of peak intensity after hydrolysis” value is recorded as “approximately tenfold”. Besides, in series [1], the “Detection in rat urine (LC–QToF–MS)” value is on record as “detected in urine from all rats”. Also, in series [2], the “Detection after incubation” value was “detected” and the “Incubation time” value was determined as 60 min. For the same molecule, the “Detection after incubation” value in series [3] was “produced”.

On to `CC1N(C)C(O)(OC(C)(C)C)OC1(O)c1ccccc1` (centres unmarked) [M6], for which the “Detection in rat urine (LC–QToF–MS)” value in series [1] is “not detected”. Besides, in series [2], the “Detection after incubation” value is listed as “detected” and the “Incubation time” value is 13 min. The “Detection after incubation” value in series [3] was “produced”.

Consider `CC(NC(=O)OC(C)(C)COC1OC(C(=O)O)C(O)C(O)C1O)C(=O)c1ccccc1` (centres unmarked) [M9], for which, in series [1] (rat urine), the “Urine collection interval with the highest ion peak intensity” value was in the range of 4 to 8 h. Moreover, the “Detection in rat urine (LC–QToF–MS)” value in series [1] is reported as “detected in all rat urine collected until 72 h”.

In the case of `CN[C@@H](C)Cc1ccccc1` [MA, Methamphetamine], the “Share of the administered amount excreted in urine” value in series [4] is “about 80%”. For the same molecule, the “Detection in rat urine (LC–QToF–MS)” value in series [1] is “not detected”. In addition, the “Detection after incubation” value in series [2] and in series [3] was “not detected” each time.
